In US8809280B2, “Therapeutic peptides” (Lytix Biopharma AS, priority 2009, dated 2014):
Converted amounts (≈) assume the structure as drawn. Read-outs that look alike come from different tables or passages of the source.

What was measured:
Type in all cases: cell-based
human red blood cells = assay: cells
Protocol: The hemolytic testing against human erythrocytes was conducted by Lytix Biopharma A/S (Tromso, Norway). Each compound was tested from a concentration of 1 mg/ml and lower, except 4k and 4n which was only tested up to 0.5 mg/ml due to solubility problems. 8 mL of blood was collected from adult healthy male donors. The blood was divided equally and distributed in a commercial available EDTA containing test tube (BD vacutainer, 7.2 mg K2 EDTA) and in a 10 mL reaction vial containing 40 μL of a heparin solution (1000 U/mL in 0.9% sodium chloride). After 30 minutes the hematocrit of the EDTA treated blood was determined. The heparinized blood was centrifuged for 10 minutes at 1500 rpm and the supernatant removed. Subsequently the RBCs were washed with prewarmed PBS three times, and diluted to 10% hematocrit. The compounds dissolved in PBS (concentration 1 μg/mL to 1000 µg/mL) and the erythrocytes were incubated under agitation at 37° C. for one hour. A positive control with an end concentration of 0.1% TRITON X-100 (nonionic surfactant) and a negative control containing pure PBS buffer were included. The samples were centrifuged (4000 rpm) for 5 minutes and the absorption of the supernatant was measured at 405 nm. The values given in Table 1A correspond to 50% hemolysis.
The plasma fraction of heparinized human blood was first removed by centrifugation and three additional washing steps with 37° C. pre-warmed phosphate buffered saline (PBS). Subsequently, the human RBC were diluted to 10% hematocrit and the β^2,2-amino acid derivatives were dissolved in PBS providing concentrations ranging from 1-1000 μg/mL. The diluted RBC were added to the compound solutions to a final erythrocyte concentration of 1% v/v. PBS and TRITON X-100 (non-ionic surfactant), in a final concentration of 0.1% v/v, were included as negative and positive control. After 1 hour agitated incubation at 37° C. the samples were centrifuged at 4000 rpm for 5 min. Release of hemoglobin was determined by measuring the absorbance of the supernatant at 405 nm. Hemolytic activity was calculated as the ratio of treated sample with β^2,2-amino acid derivative and tenside treated sample according to the formula: […]

[1] = test system: Escherichia coli (ATTC 25922); assay: microbe, parasite or virus in culture
Protocol: (§1) The antimicrobial testing was conducted by TosLab A/S (Tromsø, Norway). Each compound was diluted to 1 mg/ml in water and tested in duplicates at 200, 100, 50, 35, 15, 10, 5, 2.5, 1, 0.5 μg/ml except 4n which was tested at 50, 35, 15, 10, 5, 2.5, 1, 0.5 μg/ml due to solubility problems. All tested compounds were di TFA salts.
(§2) The bacterial strains were grown in 2% Bacto Peptone water until exponential growth was achieved. […] A bacterial concentration of 2×10^6 cfu/ml was used. Both negative control (no peptide) and positive control (Gentamicin) was used for all bacterial strains. Growth or no growth was judged by the turbidity of the wells.
Escherichia coli (ATTC 25922)
(§3) Antimicrobial assays: 200 μg/ml
(§4) Suitable methodologies are described in Example 1.
(§5) Each compound was tested in duplicates at 200, 100, 50, 35, 15, 10, 5, 2.5, 1, 0.5 μg/ml. All tested compounds were di-trifluoroacetic acid salts.

[2] = test system: Staphylococcus aureus (ATTC 25923); assay: microbe, parasite or virus in culture
Protocol: as §1, §2
Staphylococcus aureus (ATTC 25923)
as §3, §4, §5

[3] = test system: methicillin resistant Staphylococcus aureus (ATCC 33591); assay: microbe, parasite or virus in culture; settings: for MIC: Staphylococcus aureus
Protocol: as §1, §2
Methicillin resistant Staphylococcus aureus (ATCC 33591)
as §3, §4, §5

[4] = test system: methicillin resistant Staphylococcus epidermidis (ATCC 27626); assay: microbe, parasite or virus in culture
Protocol: as §1, §2
Methicillin resistant Staphylococcus epidermidis (ATCC 27626)
as §3, §4, §5

[5] = ATTC 25923, read-out: MIC S. aureus
[6] = Homo sapiens, Erythrocyte, Example 2, highest concentration tested 1000 μg/ml, * low solubility in the test media, read-out: Toxicity RBC (EC50)
[7] = Escherichia coli, Example 2, values separated by / are repeat tests, read-out: Antimicrobial potency (MIC) E. coli
[8] = Staphylococcus aureus, Example 2, values separated by / are repeat tests, read-out: Antimicrobial potency (MIC) S. aureus
[9] = ATCC 33591 / MRSA, Example 2, values separated by / are repeat tests, read-out: Antimicrobial potency (MIC) MRSA
[10] = Staphylococcus epidermidis, ATCC 27626 / MRSE, Example 2, values separated by / are repeat tests, read-out: Antimicrobial potency (MIC) MRSE

Row | SMILES | MIC [1, 7] [mg/L] | MIC [2, 8] [mg/L] | MIC [3, 9] [mg/L] | MIC [4, 10] [mg/L] | EC50 (human red blood cells; [6]) [mg/L] | further results
1 | Cc1cc(C)cc(CC(CN)(Cc2cc(C)cc(C)c2)C(=O)N[C@@H](CCCNC(=N)N)C(N)=O)c1 [Compound 4l] | – | – | – | – | – | EC50 RBC (human red blood cells; Example 1, 50% hemolysis of human red blood cells, highest concentration tested 1000 μg/ml): — (The notation “—”denotes no detectable activity (MIC or EC50) within the concentration range tested.); MBC E. coli ([1]; ATTC 25922): >282 µM; MIC E. coli ([1]; Example 1, ATTC 25922, di TFA salts, highest concentration tested 200 μg/ml): — (The notation “—”denotes no detectable activity (MIC or EC50) within the concentration range tested.); MBC S. aureus ([2]; ATTC 25923): 49 µM (≈ 23.6 µg/mL); MIC [2, 5]: 60 µM; MBC MRSA ([3]; ATCC 33591): 49 µM (≈ 23.6 µg/mL); MIC MRSA ([3]; ATCC 33591): 49 µM (≈ 23.6 µg/mL); MBC MRSE ([4]; ATCC 27626): 21 µM (≈ 10.1 µg/mL); MIC ([4]; ATCC 27626, read-out: MIC MRSE): 35 µM
2 | CC(C)(C)c1cc(CC(CN)(Cc2cc(C(C)(C)C)cc(C(C)(C)C)c2)C(=O)N[C@@H](CCCNC(=N)N)C(N)=O)cc(C(C)(C)C)c1 [Compound 4n] | – | – | – | – | – | EC50 (human red blood cells; red cells of human): 99 µM; MBC E. coli ([1]; ATTC 25922): 5.7 µM (≈ 3.7 µg/mL); MIC ([1]; ATTC 25922, read-out: MIC E. coli): 5.7 µM; MBC S. aureus ([2]; ATTC 25923): 4.6 µM (≈ 2.99 µg/mL); MIC [2, 5]: 2.9 µM; MBC MRSA ([3]; ATCC 33591): 4.6 µM (≈ 2.99 µg/mL); MIC MRSA ([3]; ATCC 33591): 2.1 µM (≈ 1.36 µg/mL); MBC MRSE ([4]; ATCC 27626): 3.4 µM (≈ 2.21 µg/mL); MIC ([4]; ATCC 27626, read-out: MIC MRSE): 10.1 µM
3 | CN(C)CCNC(=O)C(CN)(Cc1ccccc1)Cc1ccccc1 [Compound 23, 3-amino-2,2-dibenzyl-N-(2-(dimethylamino)-ethyl)-propanamide] | > 100 | > 100 | > 100 | > 100 | > 1000 | –
4 | CN(C)CCNC(=O)C(CN)(Cc1ccc(C(C)(C)C)cc1)Cc1ccc(C(C)(C)C)cc1 [Compound 24, 3-amino-2,2-bis(4-tert-butylbenzyl)-N-(2-(dimethylamino)-ethyl)-propanamide] | 5 | 5 | 5 | 2.5 | 185 | –
5 | Cc1cc(C)cc(CC(CN)(Cc2cc(C)cc(C)c2)C(=O)NCCN(C)C)c1 [Compound 25, 3-amino-N-(2-(dimethylamino)-ethyl)-2,2-bis(3,5-dimethylbenzyl)-propanamide] | 50 | 100 | 50 | 10 | 820 | –
6 | CN(C)CCNC(=O)C(CN)(CCCc1ccccc1)CCCc1ccccc1 [Compound 26, 2-(aminomethyl)-N-(2-(dimethyl-amino)ethyl)-5-phenyl-2-(3-phenyl-propyl)-pentanamide] | 100 | 35 | 35 | 35 | 316 | –
7 | CN(C)CCNC(=O)C(CN)(Cc1ccc2ccccc2c1)Cc1ccc2ccccc2c1 [Compound 27, 3-amino-N-(2-(dimethylamino)ethyl)-2,2-bis(naphthalen-2-ylmethyl)propanamide] | 15 | 5 | 5 | 5 | 145 | –
8 | CN(C)CCNC(=O)C(CN)(Cc1ccc(C(F)(F)F)cc1)Cc1ccc(C(F)(F)F)cc1 [Compound 28, 3-amino-N-(2-(dimethylamino)ethyl)-2,2-bis(4-(trifluoromethyl)benzyl)-propanamide] | 35 | 10 | 5 | 15 | 329 | –
9 | CN1CCN(C(=O)C(CN)(CCCc2ccccc2)CCCc2ccccc2)CC1 [Entry 5a] | – | – | – | – | – | EC50 (human red blood cells; Erythrocyte, Example 4, hemolytic activity, human red blood cells, highest concentration tested 1000 μg/ml, read-out: EC50 RBC): > 1000 mg/L; MIC ([1]; Escherichia coli, ATCC25922, Example 4, ATCC 25922, di-trifluoroacetate salts, highest concentration tested 200 μg/ml, read-out: MIC E. coli): 315 µM; MIC ([2]; Staphylococcus aureus, ATCC25923, Example 4, ATCC 25923, di-trifluoroacetate salts, highest concentration tested 200 μg/ml, read-out: MIC S. aureus): 315 µM; MIC ([3]; ATCC33591, Example 4, ATCC 33591, di-trifluoroacetate salts, highest concentration tested 200 μg/ml, read-out: MIC MTRSA): 315 µM; MIC ([4]; Staphylococcus epidermidis, ATCC 27626 / MRSE, Example 4, ATCC 27626, di-trifluoroacetate salts, highest concentration tested 200 μg/ml, read-out: MIC MRSE): 315 µM

More lines, main results first:

Row | MIC [1, 7] [mg/L] | MIC [2, 8] [mg/L] | MIC [3, 9] [mg/L] | MIC [4, 10] [mg/L] | SMILES | EC50 (human red blood cells; [6]) [mg/L] | further results
10 | 10 | 10 | 10 | 5 | CN1CCN(C(=O)C(CN)(Cc2ccc(C(C)(C)C)cc2)Cc2ccc(C(C)(C)C)cc2)CC1 [Compound 29, 3-amino-2,2-bis(4-tert-butylbenzyl)-1-(4-methylpiperazin-1-yl)propan-1-one] | 241 | –
11 | 200 | > 200 | 200 | 35 | Cc1cc(C)cc(CC(CN)(Cc2cc(C)cc(C)c2)C(=O)N2CCN(C)CC2)c1 [Compound 30, 3-amino-2,2-bis(3,5-dimethyl-benzyl)-1-(4-methylpiperazin-1-yl)propan-1-one] | > 1000 | –
12 | 200 | 200 | 200 | 200 | CN1CCN(C(=O)C(CN)(CCCc2ccccc2)CCCc2ccccc2)CC1 [Compound 31, 2-(aminomethyl)-1-(4-methyl-piperazin-1-yl)-5-phenyl-2-(3-phenylpropyl)pentan-1-one] | > 1000 | –
13 | 15 | 10 | 5 | 10 | CN1CCN(C(=O)C(CN)(Cc2ccc3ccccc3c2)Cc2ccc3ccccc3c2)CC1 [Compound 32, 3-amino-1-(4-methylpiperazin-1-yl)-2,2-bis(naphthalen-2-ylmethyl)propan-1-one] | 225 | –
14 | 50 | 35 | 10 | 50 | CN1CCN(C(=O)C(CN)(Cc2ccc(C(F)(F)F)cc2)Cc2ccc(C(F)(F)F)cc2)CC1 [Compound 33, 3-amino-1-(4-methylpiperazin-1-yl)-2,2-bis(4-(trifluoromethyl)benzyl)propan-1-one] | 376 | –
15 | 10 | 10 | 10 | 10 | CN(C)CCN1CCN(C(=O)C(CN)(Cc2ccc(C(C)(C)C)cc2)Cc2ccc(C(C)(C)C)cc2)CC1 [Compound 34, 3-amino-2,2-bis(4-tert-butylbenzyl)-1-(4-(2-(dimethylamino)ethyl)piperazin-1-yl)propan-1-one] | 252 | –
16 | 200 | 200 | 50 | 50 | CN(C)CCN1CCN(C(=O)C(CN)(CCCc2ccccc2)CCCc2ccccc2)CC1 [Compound 36, 2-(aminomethyl)-1-(4-(2-(dimethyl-amino)ethyl)piperazin-1-yl)-5-phenyl-2-(3-phenylpropyl)pentan-1-one] | > 1000 | –
17 | 35 | 15 | 2.5 | 10 | CN(C)CCN1CCN(C(=O)C(CN)(Cc2ccc3ccccc3c2)Cc2ccc3ccccc3c2)CC1 [Compound 37, 3-amino-1-(4-(2-(dimethylamino)ethyl)piperazin-1-yl)-2,2-bis(naphthalen-2-ylmethyl)propan-1-one] | 301 | –
18 | 100 | 35 | 5 | 50 | CN(C)CCN1CCN(C(=O)C(CN)(Cc2ccc(C(F)(F)F)cc2)Cc2ccc(C(F)(F)F)cc2)CC1 [Compound 38, 3-amino-1-(4-(2-(dimethylamino)ethyl)piperazin-1-yl)-2,2-bis(4-(trifluoromethyl)benzyl)propan-1-one] | 862 | –
